Experimental findings from PubChem BioAssay (NCI) are described below.

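Test compounds were applied to cells in 96-well plates for 48 hours at 5 doses. Here, GI50 denotes the concentration required for 50% inhibition of growth. The concentration for full growth arrest is given as TGI.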

For orientation: GI50 means the concentration that inhibits growth by half. Broadly, the TGI is the concentration giving total growth inhibition. Low values mean more potent growth arrest, high ones less potent growth arrest.

Test systems include A549 NSCLC; CCRF-CEM leukemia; HOP-62 NSCLC; HS 578T breast; MCF7 breast; NCI-H226 lung; RPMI-8226 leukemia; SF-539 CNS.
Test in all cases: DTP human tumour cell line panel, 48 h

As to `NC(=S)N/N=C/c1ccc(OC(=O)COc2ccc(Cl)cc2)cn1`, the GI50 in the assay on A549 NSCLC was 34.5 µM; in the assay on CCRF-CEM leukemia, 2.73 µM; in the assay with HOP-62 NSCLC it was 14.6 µM; in the assay with HS 578T breast it was 2.86 µM; in the assay on MCF7 breast, 3.71 µM; in the assay with NCI-H226 lung, 13.4 µM. Also, the GI50 with RPMI-8226 leukemia was 7.31 µM; with SF-539 CNS it was 3.64 µM. In addition, the TGI with A549 NSCLC is > 100 µM; in the assay on CCRF-CEM leukemia, > 100 µM; in the assay on HOP-62 NSCLC it was 91.1 µM; in the assay with HS 578T breast, > 100 µM; in the assay on MCF7 breast, > 100 µM; with NCI-H226 lung it was 48.9 µM. The TGI in the assay on RPMI-8226 leukemia is > 100 µM; with SF-539 CNS, 22.8 µM.
Turning to `CCS(=O)(=O)c1ccc(OC)c(Nc2ncc(-c3cccc(OC)c3)o2)c1`, the GI50 in the assay on A549 NSCLC is 8.75 µM; in the assay with CCRF-CEM leukemia, 10.7 µM; with HOP-62 NSCLC it was 9.41 µM; with HS 578T breast, 5.48 µM; with MCF7 breast, > 18.3 µM; in the assay on NCI-H226 lung it was 4.65 µM. The figures for the GI50 in the assay with RPMI-8226 leukemia and in the assay with SF-539 CNS were > 16.5 µM and 6.96 µM, respectively. The total growth inhibition concentration (TGI) with A549 NSCLC is > 25 µM; in the assay on CCRF-CEM leukemia it was > 25 µM; with HOP-62 NSCLC it was > 25 µM; in the assay on HS 578T breast it was 17.6 µM; in the assay on MCF7 breast, > 25 µM; with NCI-H226 lung it was > 23.6 µM. For the same compound, the TGI in the assay on RPMI-8226 leukemia and in the assay with SF-539 CNS was > 25 µM in each case.
Turning to `Fc1cc(F)c(COc2cc(Cn3cnc4c(Cl)nc(Cl)nc43)ccc2C23CC4CC(CC(C4)C2)C3)cc1F`, the GI50 in the assay on A549 NSCLC was 28 µM; in the assay on CCRF-CEM leukemia, 1.91 µM; with HOP-62 NSCLC it was 17.4 µM; in the assay on HS 578T breast, 22.9 µM; in the assay with MCF7 breast, 11 µM; in the assay on NCI-H226 lung, 2.15 µM. Besides, in the assay on SF-539 CNS, the GI50 was 17.9 µM. For the same compound, the concentration for total growth inhibition (TGI) in the assay on A549 NSCLC stood at 76.7 µM; in the assay on CCRF-CEM leukemia, 4.52 µM; in the assay with HOP-62 NSCLC it was 31.2 µM; in the assay with HS 578T breast, 60.9 µM; in the assay on MCF7 breast, 27.5 µM; in the assay with NCI-H226 lung, 4.51 µM. This compound also returned a TGI in the assay with SF-539 CNS of 32.3 µM.
On to `CCC#CC[C@H]1C/C=C2/C(=O)C=C[C@@H]2C/C=C\CCCC(=O)O1`, for which the GI50 with A549 NSCLC is 1.24 µM; with CCRF-CEM leukemia, 0.791 µM; in the assay on HOP-62 NSCLC, 1.02 µM; in the assay with HS 578T breast, 1.96 µM; in the assay on MCF7 breast, 0.203 µM; in the assay with NCI-H226 lung, 1.27 µM. The GI50 in the assay with RPMI-8226 leukemia was 0.267 µM; with SF-539 CNS it was 1.94 µM. Moreover, the TGI in the assay with A549 NSCLC came to 4.03 µM; in the assay on CCRF-CEM leukemia it was 5 µM; in the assay with HOP-62 NSCLC, 3.26 µM; in the assay with HS 578T breast, 14.8 µM; with MCF7 breast it was 5.82 µM; in the assay on NCI-H226 lung, 5.26 µM. For the same compound, the values for the concentration for total growth inhibition (TGI) with RPMI-8226 leukemia and in the assay with SF-539 CNS were 1.86 µM and 7.67 µM, respectively.
On to `COc1ccc(C(=O)c2cc(C)c(OC)c(C)c2)c(OC)c1N(C(=O)C(Cl)Cl)C(=O)C(Cl)Cl`, for which the GI50 in the assay on A549 NSCLC was 0.0804 µM; in the assay with CCRF-CEM leukemia it was 0.0626 µM; in the assay on HOP-62 NSCLC, 0.0666 µM; with HS 578T breast, 0.0277 µM; in the assay with MCF7 breast it was 0.0811 µM; in the assay with NCI-H226 lung it was 0.0468 µM. Also, the GI50 in the assay on RPMI-8226 leukemia was 0.0794 µM; in the assay with SF-539 CNS, 0.0343 µM. Also, the TGI in the assay on A549 NSCLC was > 100 µM; in the assay with CCRF-CEM leukemia, > 100 µM; with HOP-62 NSCLC it was > 100 µM; in the assay on HS 578T breast, > 100 µM; in the assay on MCF7 breast it was > 100 µM; with NCI-H226 lung it was 0.468 µM. For the same compound, the TGI with RPMI-8226 leukemia was 20.8 µM; in the assay on SF-539 CNS, 0.206 µM.
Regarding `NCCCC[C@@H]1NC(=O)[C@H]2CCCN2C(=O)[C@H](Cc2ccccc2)NC(=O)[C@H](Cc2ccccc2)CNC1=O`, the GI50 with A549 NSCLC, with CCRF-CEM leukemia, in the assay on HOP-62 NSCLC, in the assay with HS 578T breast, in the assay with MCF7 breast and with NCI-H226 lung was > 100 µM each time. For the same compound, the GI50 with RPMI-8226 leukemia and in the assay on SF-539 CNS was > 100 µM in each case. Besides, the TGI in the assay on A549 NSCLC, with CCRF-CEM leukemia, in the assay with HOP-62 NSCLC, in the assay with HS 578T breast, in the assay with MCF7 breast and with NCI-H226 lung was > 100 µM in each case. Also, the TGI in the assay on RPMI-8226 leukemia and in the assay on SF-539 CNS was > 100 µM each time.
`Clc1nc(Cl)c2ncn(Cc3cccc(COc4cccc(OCc5cccc(Cn6cnc7c(Cl)nc(Cl)nc76)c5)c4)c3)c2n1`: the GI50 was > 100 µM with A549 NSCLC; 5.24 µM in the assay with CCRF-CEM leukemia; 58.2 µM in the assay on HOP-62 NSCLC; > 100 µM with HS 578T breast; 31.1 µM in the assay with MCF7 breast; 4.97 µM in the assay on NCI-H226 lung. In addition, the GI50 in the assay on RPMI-8226 leukemia is 2.61 µM; in the assay on SF-539 CNS it was > 100 µM. For the same compound, the total growth inhibition concentration (TGI) with A549 NSCLC was > 100 µM; in the assay with CCRF-CEM leukemia, > 100 µM; in the assay on HOP-62 NSCLC it was > 100 µM; in the assay with HS 578T breast it was > 100 µM; in the assay with MCF7 breast, > 100 µM; in the assay with NCI-H226 lung it was 27.5 µM. For the same compound, the TGI in the assay on RPMI-8226 leukemia is 54.8 µM; in the assay with SF-539 CNS it was > 100 µM.
Take `Cc1cc(C)c(C(=O)CC(=O)c2cccnc2)c(C)c1`: the GI50 in the assay with A549 NSCLC is 6.97 µM; in the assay with CCRF-CEM leukemia, 4.1 µM; with HOP-62 NSCLC, 6.32 µM; in the assay on HS 578T breast, 9.4 µM; in the assay on MCF7 breast it was 5.96 µM; in the assay on NCI-H226 lung it was 7.34 µM. The GI50 in the assay on RPMI-8226 leukemia was 5.31 µM; in the assay on SF-539 CNS, 6.93 µM. In addition, the TGI was > 100 µM in the assay on A549 NSCLC; 45.8 µM in the assay with CCRF-CEM leukemia; > 100 µM with HOP-62 NSCLC; > 100 µM in the assay on HS 578T breast; > 100 µM with MCF7 breast; 86.8 µM in the assay on NCI-H226 lung. For the same compound, the concentration for total growth inhibition (TGI) in the assay on RPMI-8226 leukemia was > 100 µM; in the assay on SF-539 CNS it was 45.7 µM.
Turning to `Nc1ncc(-c2cnn(CCO)c2)c2scc(-c3ccc(NC(=O)Nc4cccc(F)c4)cc3)c12`, the GI50 was 0.125 µM in the assay on A549 NSCLC; < 0.01 µM with CCRF-CEM leukemia; 0.418 µM in the assay on HOP-62 NSCLC; 0.273 µM in the assay on HS 578T breast; 0.226 µM with MCF7 breast; 0.162 µM in the assay on NCI-H226 lung. Moreover, the GI50 with RPMI-8226 leukemia was 0.454 µM. Besides, the TGI in the assay with A549 NSCLC was 1.5 µM; in the assay with CCRF-CEM leukemia, 5.01 µM; in the assay with HOP-62 NSCLC, 2.71 µM; in the assay with HS 578T breast, 3.02 µM; with MCF7 breast, 3.7 µM; in the assay with NCI-H226 lung it was 5.15 µM. The compound also displayed a TGI in the assay with RPMI-8226 leukemia of 2.81 µM.
